# Experimental data as given in patent US20160264570A1, “METHOD OF BLOCKING TRANSMISSION OF MALARIAL PARASITE” (THE UNITED STATES OF AMERICA, AS REPRESENTED BY THE …, priority 2013, published 2016).
# Like-named read-outs stand apart in the source and are kept apart here. Starred links: 1 amine or outer side, 2 acyl side, 3 side chain; linkers in the order of their positions; H or OH if unused. Positions of bridges follow the written chain, without caps; N, C: chain ends. Non-standard residues stand in square brackets, D forms with d. Residues, ends and D or L forms follow the SMILES beside them. Chains are numbered I, II in the order given. Actinocin(9to1) = Cc1c2oc3c(C)ccc(C(=O)[*:1])c3nc-2c(C(=O)[*:2])c(N)c1=O; NMeV = CN[C@H](C(=O)O)C(C)C; Sar = CNCC(=O)O
# Legend:
# [1] = tested on: Asexual parasites of P. falciparum strain 3D7; experiment: SYBR Green viability assay on asexual parasites; format: cell-based, Plasmodium falciparum; conditions: for EC50: read-out: Activity against asexual parasites EC50
# [2] = tested on: P. falciparum strain 3D7 gametocytes; experiment: alamarBlue gametocyte viability assay, strain 3D7; conditions: for EC50: read-out: Gametocytocidal activity EC50
# [3] = tested on: HepG2 cells; experiment: Cytotoxicity in mammalian HepG2 cell line; conditions: for % Max response: HepG2; for Emax: HepG2, read-out: % Max response
# [4] = tested on: P. falciparum strain HB3 gametocytes; experiment: alamarBlue gametocyte viability assay, strain HB3
# [5] = tested on: P. falciparum strain Dd2 gametocytes; experiment: alamarBlue gametocyte viability assay, strain Dd2
# [6] = read-out: 3D7-IC50, Table 3, 11 concentrations, 1:3 dilution, three times
# [7] = read-out: Gametocyte IC50, mean of at least 3 independent experiments, P. falciparum 3D7 gametocyte
# [8] = Table 2, Inactive = no significant activity at highest tested concentration (46 μM)
# [9] = Table 4, Inactive = no significant activity at highest tested concentration (46 μM)
# [10] = read-out: HB3-IC50, Table 3, 11 concentrations, 1:3 dilution, three times
# [11] = read-out: Dd2-IC50, Table 3, 11 concentrations, 1:3 dilution, three times
# [12] = read-out: IC50 (μM) in HepG2, Table 2, Inactive = no significant activity at highest tested concentration (46 μM)
# [13] = read-out: IC50 (μM) in HepG2 cells, Table 4, Inactive = no significant activity at highest tested concentration (46 μM)
# [14] = Plasmodium falciparum, 3D7, read-out: 3D7-IC50
# [15] = Homo sapiens, HepG2, read-out: IC50 (μM) in HepG2 cells
# [16] = Plasmodium falciparum, HB3, read-out: HB3-IC50
# [17] = Plasmodium falciparum, HB3, read-out: HB3-IC50, Table 3, 11 concentrations, 1:3 dilution, three times
# [18] = Plasmodium falciparum, DD2, read-out: Dd2-IC50
# [19] = Plasmodium falciparum, 3D7, read-out: Gametocyte IC50
# [20] = Homo sapiens, HepG2, read-out: IC50 (μM) in HepG2
structure (smiles),measurement,setting,value
N#Cc1cccc(-c2ccc3ncc4ccc(=O)n(-c5cccc(C(F)(F)F)c5)c4c3c2)c1,EC50,[1]; Table 6,0.283 µM
same,EC50,[2]; Table 6,0.526 µM
CCN(CCO)CCCOc1ccc2c(Nc3cc(CC(=O)Nc4cccc(F)c4)[nH]n3)ncnc2c1 [AZD-1152-HQPA],IC50,[2]; [6],0.743 µM
same,IC50,[2]; [7],0.743 µM
same,% Max response,[3]; Table 2,11%
same,IC50 (μM) in HepG2,[3]; [8],Inactive
same,% Max response,[3]; Table 4,11%
same,IC50 (μM) in HepG2 cells,[3]; [9],Inactive
same,IC50,[4]; [10],1.48 µM
same,IC50,[5]; [11],1.48 µM
CC(=O)OC[C@H]1O[C@@H]([S-])[C@H](OC(C)=O)[C@@H](OC(C)=O)[C@@H]1OC(C)=O.CCP(CC)CC.[Au+] [Auranofin],IC50,[2]; [6],0.935 µM
same,IC50,[2]; [7],0.935 µM
same,% Max response,[3]; Table 2,−98%
same,% Max response,[3]; Table 4,−98%
same,IC50,[3]; [12],9.35 µM
same,IC50,[3]; [13],9.35 µM
same,IC50,[4]; [10],1.05 µM
same,IC50,[5]; [11],1.18 µM
CC1(C)OC2=C(C(=O)c3ccccc3C2=O)[C@H](NCc2ccccc2)[C@@H]1O [CAY10581],IC50,[2]; [6],0.743 µM
same,IC50,[2]; [7],0.743 µM
same,% Max response,[3]; Table 2,−86%
same,% Max response,[3]; Table 4,−86%
same,IC50,[3]; [12],17.1 µM
same,IC50,[3]; [13],17.1 µM
same,IC50,[4]; [10],0.662 µM
same,IC50,[5]; [11],2.35 µM
C#Cc1cccc(Nc2ncnc3cc(OC)c(OCCCCCCC(=O)NO)cc23)c1 [CUDC-101],IC50,[2]; [14],0.8 µM
same,IC50,[3]; [15],6.79 µM
same,% Max response,[3]; Table 4,−76%
same,IC50,[4]; [16],0.152 µM
same,fold more potent against HB3 compared to 3D7,[4]; gametocytes,5.5 fold
CNc1ccc2oc(C[C@H]3O[C@@]4(CC[C@H]3C)O[C@H]([C@H](C)C(=O)c3ccc[nH]3)[C@H](C)C[C@H]4C)nc2c1C(=O)O [Calcimycin],IC50,[2]; [14],2.64 µM
same,IC50,[4]; [17],5.9 µM
CCN(CC)CCCC(C)Nc1ccnc2cc(Cl)ccc12 (stereo not drawn) [Chloroquine diphosphate],IC50,[2]; [14],0.2 µM
same,IC50,[4]; [16],0.935 µM
same,IC50,[5]; [18],0.935 µM
Cc1cc(NC2CCCCC2)nc(-n2nc(C)cc2C)n1 [CyPPA],IC50,[2]; [6],0.469 µM
same,IC50,[4]; [10],0.743 µM
same,IC50,[5]; [11],0.59 µM
"Cc1c2oc3c(C)ccc(C(=O)N[C@@H]4C(=O)N[C@H](C(C)C)C(=O)N5CCC[C@H]5C(=O)N(C)CC(=O)N(C)[C@@H](C(C)C)C(=O)O[C@@H]4C)c3nc-2c(C(=O)N[C@@H]2C(=O)N[C@H](C(C)C)C(=O)N3CCC[C@H]3C(=O)N(C)CC(=O)N(C)[C@@H](C(C)C)C(=O)O[C@@H]2C)c(N)c1=O [Dactinomycin] (I: T[dV]P[Sar][NMeV] / II: T[dV]P[Sar][NMeV]; ester I:1-I:C, II:1-II:C; linker I:N-II:N via Actinocin(9to1))",IC50,[2]; [19],0.015 µM
same,Emax,[3]; Homo sapiens,1%
same,IC50 (μM) in HepG2,[3]; [8],Inactive
same,IC50 (μM) in HepG2 cells,[3]; [9],Inactive
same,IC50,[4]; [16],0.019 µM
same,IC50,[5]; [18],0.033 µM
S=C(SSC(=S)N1CCCCC1)N1CCCCC1 [Dicyclopentamethylenethiuram],IC50,[2]; [6],0.2 µM
same,IC50,[4]; [10],0.743 µM
same,IC50,[5]; [11],0.743 µM
CCN(CC)Cc1nccn1-c1ccc([N+](=O)[O-])cc1C(=O)c1ccccc1Cl [Nizofenone],IC50,[2]; [14],23.5 µM
same,IC50,[4]; [17],14.8 µM
COc1cc(NC(C)CCCN)c2ncccc2c1 (stereo not drawn) [Primaquine diphosphate],IC50,[4]; [16],0.679 µM
same,IC50,[5]; [18],1.08 µM
"COc1cc(NC(C)CCCN)c2ncccc2c1 (stereo not drawn) [Primaquine, primaquine]",IC50,[3]; [15],17.8 µM
same,IC50,"[4]; Plasmodium falciparum, HB3, read-out: IC50 against HB3 gametocytes",0.68 µM
same,IC50,"[5]; Plasmodium falciparum, DD2, read-out: IC50 against Dd2 gametocytes",1.08 µM
C/C=C1\NC(=O)[C@H]2CSSCC/C=C/[C@H](CC(=O)N[C@H](C(C)C)C(=O)N2)OC(=O)[C@H](C(C)C)NC1=O [Romidepsin],IC50,[2]; [14],0.2 µM
same,IC50,[2]; [19],0.637 µM
same,Emax,[3]; Homo sapiens,-98%
same,IC50,[3]; [20],0.074 µM
same,IC50,[3]; [15],0.074 µM
same,IC50,[4]; [17],0.148 µM
Cl.Cl.Cl.Cl.Cl.Cl.N.N.N.N.N.N.N.N.N.N.N.N.N.N.[O-2].[O-2].[Ru+3].[Ru+3].[Ru+4] [Ruthenium red],IC50,[2]; [6],0.935 µM
same,IC50,[4]; [10],0.264 µM
same,IC50,[5]; [11],0.526 µM
CC[C@@H](C(=O)[C@@H](C)[C@@H](O)[C@H](C)[C@@H]1O[C@@H]([C@@H](CC)C(=O)O)CC[C@@H]1C)[C@H]1O[C@]2(C=C[C@@H](O)[C@]3(CC[C@@](C)([C@H]4CC[C@](O)(CC)[C@H](C)O4)O3)O2)[C@H](C)C[C@@H]1C [Salinomycin monosodium],IC50,[2]; [6],0.1 µM
same,IC50,[4]; [10],0.469 µM
same,IC50,[5]; [11],0.296 µM
CC[C@@H](C(=O)[C@@H](C)[C@@H](O)[C@H](C)[C@@H]1O[C@@H]([C@@H](CC)C(=O)O)CC[C@@H]1C)[C@H]1O[C@]2(C=C[C@@H](O)[C@]3(CC[C@@](C)([C@H]4CC[C@](O)(CC)[C@H](C)O4)O3)O2)[C@H](C)C[C@@H]1C [Salinomycin sodium],IC50,[2]; [14],0.1 µM
same,IC50,[2]; [19],0.194 µM
same,Emax,[3]; Homo sapiens,-69%
same,IC50,[3]; [20],29.6 µM
same,IC50,[3]; [15],29.6 µM
same,IC50,[4]; [17],0.372 µM
CCN(CC)C(=S)SSC(=S)N(CC)CC [Tetraethylthiuram disulfide],IC50,[4]; [16],0.148 µM
same,IC50,[5]; [18],0.296 µM
"CCC(=O)N1CCN(c2ccc(-n3c(=O)ccc4cnc5ccc(-c6cnc7ccccc7c6)cc5c43)cc2C(F)(F)F)CC1 [Torin 1, reference compound]",times less potent than Torin 2 against asexual parasites,[1],78 times
same,IC50,[1]; read-out: IC50 in viability assay using asexual parasites,0.215 µM
same,IC50,[2]; read-out: IC50 against 3D7 gametocytes,1.6 µM
CCC(=O)N1CCN(c2ccc(-n3c(=O)ccc4cnc5ccc(-c6cnc7ccccc7c6)cc5c43)cc2C(F)(F)F)CC1 [Torin-1],IC50,[2]; [6],6.62 µM
same,IC50,[4]; [10],3.72 µM
same,IC50,[5]; [11],5.26 µM
Nc1ccc(-c2ccc3ncc4ccc(=O)n(-c5cccc(C(F)(F)F)c5)c4c3c2)cn1 [drawing 333],EC50,[1]; Table 6,0.006 µM
same,EC50,[2]; Table 6,0.018 µM
Cn1c(=O)n(-c2cccc(C(F)(F)F)c2)c2c3cc(-c4cccc(C#N)c4)ccc3ncc21 [drawing 455],EC50,[1]; Table 7,0.546 µM
same,EC50,[2]; Table 7,2.82 µM
Cn1c(=O)n(-c2cccc(C(F)(F)F)c2)c2c3cc(-c4cccc(C#N)c4)ccc3ncc21 [drawing 462],EC50,[1]; Table 7,0.059 µM
same,EC50,[2]; Table 7,0.314 µM
